From ChEMBL document CHEMBL3044572, “Discovery of 2-(4-cyano-3-trifluoromethylphenyl amino)-4-(4-quinazolinyloxy)-6-piperazinyl(piperidinyl)-s-triazines as potential antibacterial agents” (2012)
Converted amounts (≈) assume the structure as drawn. The source made the active and inactive calls. No cut-off for these calls is given here.

How the values were obtained:
Aspergillus niger [1] = assay: Antimicrobial activity against Aspergillus niger MTCC 282 by agar streak dilution method; format: functional
Bacillus cereus [2] = assay: Antimicrobial activity against Bacillus cereus MTCC 619 at 100 ug/ml by paper disk diffusion method; format: functional, organism-based
[3] = system: Mycobacterium tuberculosis; assay: Antimicrobial activity against Mycobacterium tuberculosis H37Rv at 100 ug/ml by BACTEC MGIT method; format: functional, organism-based
[4] = system: Mycobacterium tuberculosis; assay: Antimicrobial activity against Mycobacterium tuberculosis H37Rv by BACTEC MGIT method; format: functional; details: Mycobacterium tuberculosis, H37Rv
[5] = system: Mycobacterium tuberculosis; assay: Antimicrobial activity against Mycobacterium tuberculosis H37Rv by Lowenstein and Jensen method; format: functional; details: for MIC: Mycobacterium tuberculosis, H37Rv
Proteus vulgaris [6] = assay: Antimicrobial activity against Proteus vulgaris MTCC 1771 by paper disk diffusion method; format: functional
Pseudomonas aeruginosa [7] = assay: Antimicrobial activity against Pseudomonas aeruginosa MTCC 741 by agar streak dilution method; format: functional
Shigella flexneri = assay: Antimicrobial activity against Shigella flexneri MTCC 1457 at 100 ug/ml by paper-disk diffusion method; format: functional, organism-based
Staphylococcus aureus [8] = assay: Antimicrobial activity against Staphylococcus aureus MTCC 96 by agar streak dilution method; format: functional
Pseudomonas aeruginosa [9] = assay: Antimicrobial activity against Pseudomonas aeruginosa MTCC 741 by paper disk diffusion method; format: functional
Staphylococcus aureus [10] = assay: Antimicrobial activity against Staphylococcus aureus MTCC 96 by paper-disk diffusion method; format: functional
Aspergillus clavatus [11] = assay: Antimicrobial activity against Aspergillus clavatus MTCC 1323 at 100 ug/ml by paper disk diffusion method; format: functional, organism-based
Salmonella typhi [12] = assay: Antimicrobial activity against Salmonella enterica subsp. enterica serovar Typhi MTCC 733 by agar streak dilution method; format: functional
Candida albicans [13] = assay: Antimicrobial activity against Candida albicans MTCC 183 by agar streak dilution method; format: functional
Salmonella typhi [14] = assay: Antimicrobial activity against Salmonella enterica subsp. enterica serovar Typhi MTCC 733 by paper disk diffusion method; format: functional
Klebsiella pneumoniae = assay: Antimicrobial activity against Klebsiella pneumoniae MTCC 109 at 100 ug/ml by paper disk diffusion method; format: functional, organism-based
Aspergillus niger [15] = assay: Antimicrobial activity against Aspergillus niger MTCC 282 by paper-disk diffusion method; format: functional
Proteus vulgaris [16] = assay: Antimicrobial activity against Proteus vulgaris MTCC 1771 by agar streak dilution method; format: functional
Escherichia coli [17] = assay: Antimicrobial activity against Escherichia coli MTCC 739 at 100 ug/ml by paper-disk diffusion method; format: functional, organism-based
Candida albicans [18] = assay: Antimicrobial activity against Candida albicans MTCC 183 by paper-disk diffusion method; format: functional
Aspergillus fumigatus [19] = assay: Antimicrobial activity against Aspergillus fumigatus MTCC 343 at 100 ug/ml by paper-disk diffusion method; format: functional, organism-based
Bacillus cereus [20] = assay: Antimicrobial activity against Bacillus cereus MTCC 619 by paper disk diffusion method; format: functional
Escherichia coli [21] = assay: Antimicrobial activity against Escherichia coli MTCC 739 by agar streak dilution method; format: functional
Proteus vulgaris [22] = assay: Antimicrobial activity against Proteus vulgaris MTCC 1771 at 100 ug/ml by paper disk diffusion method; format: functional, organism-based
Escherichia coli [23] = assay: Antimicrobial activity against Escherichia coli MTCC 739 by paper disk diffusion method; format: functional
Aspergillus fumigatus [24] = assay: Antimicrobial activity against Aspergillus fumigatus MTCC 343 by paper-disk diffusion method; format: functional
Bacillus cereus [25] = assay: Antimicrobial activity against Bacillus cereus MTCC 619 by agar streak dilution method; format: functional
Aspergillus fumigatus [26] = assay: Antimicrobial activity against Aspergillus fumigatus MTCC 343 by agar streak dilution method; format: functional
Pseudomonas aeruginosa [27] = assay: Antimicrobial activity against Pseudomonas aeruginosa MTCC 741 at 100 ug/ml by paper disk diffusion method; format: functional, organism-based
Staphylococcus aureus [28] = assay: Antimicrobial activity against Staphylococcus aureus MTCC 96 at 100 ug/ml by paper-disk diffusion method; format: functional, organism-based
Salmonella typhi [29] = assay: Antimicrobial activity against Salmonella enterica subsp. enterica serovar Typhi MTCC 733 at 100 ug/ml by paper disk diffusion method; format: functional, organism-based
Aspergillus niger [30] = assay: Antimicrobial activity against Aspergillus niger MTCC 282 at 100 ug/ml by paper-disk diffusion method; format: functional, organism-based
Aspergillus clavatus [31] = assay: Antimicrobial activity against Aspergillus clavatus MTCC 1323 by paper disk diffusion method; format: functional
Aspergillus clavatus [32] = assay: Antimicrobial activity against Aspergillus clavatus MTCC 1323 by agar streak dilution method; format: functional

Row | SMILES | MIC (Aspergillus niger [1]) | inhibition [3] | MIC [4] | inhibition (percent inhibition) [5] | MIC [5] | inhibition zone (IZ) (Proteus vulgaris [6]) | MIC (Pseudomonas aeruginosa [7]) | inhibition zone (IZ) (Shigella flexneri) | MIC (Staphylococcus aureus [8]) | inhibition zone (IZ) (Pseudomonas aeruginosa [9]) | inhibition zone (IZ) (Staphylococcus aureus [10]) | inhibition zone (IZ) (Aspergillus clavatus [11]) | MIC (Salmonella typhi [12]) | MIC (Candida albicans [13]) | inhibition zone (IZ) (Salmonella typhi [14]) | inhibition zone (IZ) (Klebsiella pneumoniae) | inhibition zone (IZ) (Aspergillus niger [15]) | MIC (Proteus vulgaris [16]) | inhibition zone (IZ) (Escherichia coli [17]) | inhibition zone (IZ) (Candida albicans [18]) | other results
1 | N#Cc1ccc(Nc2nc(Oc3ncnc4ccccc34)nc(N3CCCCC3)n2)cc1C(F)(F)F | 100 µg/mL (≈ 203 µM) | inactive | > 6.25 µg/mL | 94% | 500 µg/mL (≈ 1020 µM) | 20 mm | 100 µg/mL (≈ 203 µM) | inactive | 100 µg/mL (≈ 203 µM) | 22 mm | 22 mm | inactive | 100 µg/mL (≈ 203 µM) | 100 µg/mL (≈ 203 µM) | 20 mm | inactive | 21 mm | 100 µg/mL (≈ 203 µM) | inactive | 20 mm | inhibition zone (IZ) (Bacillus cereus [2]): inactive; inhibition zone (IZ) (Aspergillus fumigatus [19]): inactive
2 | N#Cc1ccc(Nc2nc(Oc3ncnc4ccccc34)nc(N3CCOCC3)n2)cc1C(F)(F)F | 100 µg/mL (≈ 202 µM) | inactive | > 6.25 µg/mL | 98% | 100 µg/mL (≈ 202 µM) |  | 100 µg/mL (≈ 202 µM) | inactive | 100 µg/mL (≈ 202 µM) | 22 mm | 22 mm | inactive | 100 µg/mL (≈ 202 µM) | 100 µg/mL (≈ 202 µM) | 22 mm | inactive | 22 mm |  |  | 20 mm | inhibition zone (IZ) (Bacillus cereus [20]): 23 mm; MIC (Escherichia coli [21]): 100 µg/mL (≈ 202 µM); inhibition zone (IZ) (Proteus vulgaris [22]): inactive; inhibition zone (IZ) (Escherichia coli [23]): 21 mm; inhibition zone (IZ) (Aspergillus fumigatus [24]): 21 mm; MIC (Bacillus cereus [25]): 100 µg/mL (≈ 202 µM); MIC (Aspergillus fumigatus [26]): 100 µg/mL (≈ 202 µM)
3 | N#Cc1ccc(Nc2nc(Oc3ncnc4ccccc34)nc(N3CCN(c4ccccc4)CC3)n2)cc1C(F)(F)F |  | inactive | > 6.25 µg/mL | 94% | 1000 µg/mL (≈ 1760 µM) | 23 mm |  | inactive |  |  |  | inactive |  | 100 µg/mL (≈ 176 µM) |  | inactive |  | 50 µg/mL (≈ 87.8 µM) | inactive | 19 mm | inhibition zone (IZ) (Bacillus cereus [2]): inactive; inhibition zone (IZ) (Pseudomonas aeruginosa [27]): inactive; inhibition zone (IZ) (Staphylococcus aureus [28]): inactive; inhibition zone (IZ) (Salmonella typhi [29]): inactive; inhibition zone (IZ) (Aspergillus niger [30]): inactive; inhibition zone (IZ) (Aspergillus fumigatus [19]): inactive
4 | N#Cc1ccc(Nc2nc(Oc3ncnc4ccccc34)nc(N3CCN(c4ccccn4)CC3)n2)cc1C(F)(F)F | 100 µg/mL (≈ 175 µM) | inactive | > 6.25 µg/mL | 96% | 200 µg/mL (≈ 351 µM) | 21 mm | 100 µg/mL (≈ 175 µM) | inactive | 50 µg/mL (≈ 87.6 µM) | 21 mm | 22 mm |  | 100 µg/mL (≈ 175 µM) | 100 µg/mL (≈ 175 µM) | 21 mm | inactive | 21 mm | 100 µg/mL (≈ 175 µM) | inactive | 21 mm | inhibition zone (IZ) (Bacillus cereus [20]): 24 mm; inhibition zone (IZ) (Aspergillus clavatus [31]): 20 mm; MIC (Aspergillus clavatus [32]): 100 µg/mL (≈ 175 µM); MIC (Bacillus cereus [25]): 25 µg/mL (≈ 43.8 µM); inhibition zone (IZ) (Aspergillus fumigatus [19]): inactive
